Activity calls are given as the source filed them. The rule behind the calls is not given here.
Key:
NCI-H1975 = test: Antiproliferative activity against human NCI-H1975 cells assessed as growth inhibition incubated upto 72 hrs by CellTiter96 Aqueous One Solution Cell Proliferation assay; assay type: functional
[1] = target: Heat shock protein HSP 90-alpha (Homo sapiens, UniProt P07900); test: Inhibition of His-tagged N-terminal recombinant HSP90alpha (unknown origin) expressed in Escherichia coli BL21 (DE3) incubated for 4 hrs by fluorescence polarization based microplate reader assay
[2] = target: T1, Heat shock protein HSP90 (Homo sapiens) (UniProt P07900+P08238); test: Inhibition of HSP90 in human NCI-H1975 cells assessed as downregulation of Akt expression at 2 uM incubated for 24 hrs by western blot analysis; assay type: cell-based
[3] = target: T1, Heat shock protein HSP90 (Homo sapiens); test: Inhibition of HSP90 in human NCI-H1975 cells assessed as downregulation of EGFR expression at 2 uM incubated for 24 hrs by western blot analysis; assay type: cell-based
[4] = target: T2, Protein deacetylase HDAC6 (Homo sapiens) (UniProt Q9UBN7); test: Inhibition of HDAC6 in human NCI-H1975 cells assessed as increase in acetylation of HSP90-Lys 294 residue at 2 uM incubated for 24 hrs by western blot analysis; assay type: cell-based
T2 sequence (whole entry): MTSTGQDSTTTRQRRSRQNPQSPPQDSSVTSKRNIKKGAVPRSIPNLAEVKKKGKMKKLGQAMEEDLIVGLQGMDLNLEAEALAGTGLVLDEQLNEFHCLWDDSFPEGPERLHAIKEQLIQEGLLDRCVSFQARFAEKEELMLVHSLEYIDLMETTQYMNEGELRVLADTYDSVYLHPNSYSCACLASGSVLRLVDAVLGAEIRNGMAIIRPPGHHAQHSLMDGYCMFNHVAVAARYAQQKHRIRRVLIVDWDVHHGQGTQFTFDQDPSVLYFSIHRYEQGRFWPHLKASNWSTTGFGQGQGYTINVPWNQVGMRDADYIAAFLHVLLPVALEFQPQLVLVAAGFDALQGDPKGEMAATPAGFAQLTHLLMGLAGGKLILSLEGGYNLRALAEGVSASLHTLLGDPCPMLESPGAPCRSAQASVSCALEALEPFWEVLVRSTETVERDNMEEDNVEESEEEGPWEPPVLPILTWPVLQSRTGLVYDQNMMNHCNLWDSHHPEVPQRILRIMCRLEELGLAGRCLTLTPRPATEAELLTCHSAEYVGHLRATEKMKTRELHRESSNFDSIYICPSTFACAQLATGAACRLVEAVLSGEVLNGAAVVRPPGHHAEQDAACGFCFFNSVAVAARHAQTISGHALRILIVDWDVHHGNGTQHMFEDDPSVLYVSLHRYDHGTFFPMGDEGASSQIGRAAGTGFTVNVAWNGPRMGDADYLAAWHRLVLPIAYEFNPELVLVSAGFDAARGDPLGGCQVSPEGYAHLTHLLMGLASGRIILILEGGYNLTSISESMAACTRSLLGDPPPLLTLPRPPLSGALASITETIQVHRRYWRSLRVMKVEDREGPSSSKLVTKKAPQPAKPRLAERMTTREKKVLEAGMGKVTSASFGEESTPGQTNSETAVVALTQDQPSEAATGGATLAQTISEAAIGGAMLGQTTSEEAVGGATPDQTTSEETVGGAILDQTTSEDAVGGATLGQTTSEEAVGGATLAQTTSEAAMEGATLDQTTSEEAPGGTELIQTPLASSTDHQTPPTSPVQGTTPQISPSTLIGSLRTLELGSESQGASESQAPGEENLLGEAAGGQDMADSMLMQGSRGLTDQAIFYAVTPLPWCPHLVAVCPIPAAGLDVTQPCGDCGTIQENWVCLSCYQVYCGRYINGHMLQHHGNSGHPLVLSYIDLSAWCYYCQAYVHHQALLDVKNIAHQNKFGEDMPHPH

[5] = target: T1, Heat shock protein HSP90 (Homo sapiens); test: Inhibition of HSP90 in human NCI-H1975 cells assessed as upregulation of HSP70 expression at 2 uM incubated for 24 hrs by western blot analysis; assay type: cell-based
[6] = target: T1, Heat shock protein HSP90 (Homo sapiens); test: Inhibition of HSP90 in human NCI-H1975 cells assessed as downregulation of Met expression at 2 uM incubated for 24 hrs by western blot analysis; assay type: cell-based
[7] = target: T1, Heat shock protein HSP90 (Homo sapiens); test: Inhibition of HSP90 in human NCI-H1975 cells assessed as downregulation of Her2 expression at 2 uM incubated for 24 hrs by western blot analysis; assay type: cell-based
[8] = target: T2, Protein deacetylase HDAC6 (Homo sapiens); test: Inhibition of HDAC6 in human NCI-H1975 cells assessed as increase in acetylation of alpha tubulin at 1 uM incubated for 24 hrs by western blot analysis; assay type: cell-based

CN(Cc1ccc(C(=O)NO)cc1)C(=O)c1ccccc1
GI50 (NCI-H1975): 8.2 µM
IC50 [1]: > 1 µM

COC(=O)c1ccc(CN(C)C(=O)c2cc(C(C)C)c(O)cc2O)cc1
inhibition [2]: Active
inhibition [3]: Active
inhibition [4]: Active
GI50 (NCI-H1975): 3.5 µM
inhibition [5]: Active
inhibition [6]: Active
inhibition [7]: Active

CCCCN(Cc1ccc(C(=O)NO)cc1)C(=O)c1cc(Cl)c(O)cc1O
GI50 (NCI-H1975): 66.4 µM
IC50 [1]: 0.632 µM

CCCN(Cc1ccc(C(=O)NO)cc1)C(=O)c1cc(C(C)C)c(O)cc1O
GI50 (NCI-H1975): 23.7 µM
IC50 [1]: 0.648 µM

CCCCN(Cc1ccc(C(=O)NO)cc1)C(=O)c1cc(C(C)C)c(O)cc1O
GI50 (NCI-H1975): 23.6 µM
IC50 [1]: 0.367 µM

CCCN(Cc1ccc(C(=O)NO)cc1)C(=O)c1cc(Cl)c(O)cc1O
GI50 (NCI-H1975): 73.6 µM
IC50 [1]: > 1 µM

CCN(Cc1ccc(C(=O)NO)cc1)C(=O)c1cc(Cl)c(O)cc1O
GI50 (NCI-H1975): 13.2 µM
IC50 [1]: 0.693 µM

COC1=C2C[C@@H](C)C[C@H](OC)[C@H](O)[C@@H](C)/C=C(\C)[C@H](OC(N)=O)[C@@H](OC)/C=C\C=C(/C)C(=O)NC(=CC1=O)C2=O
inhibition [8]: Active

CN(Cc1ccc(C(=O)NO)cc1)C(=O)c1cc(Cl)c(O)cc1O
GI50 (NCI-H1975): 68.8 µM
IC50 [1]: 0.608 µM

CC(C)c1cc(C(=O)N(C)Cc2ccc(C(=O)O)cc2)c(O)cc1O
GI50 (NCI-H1975): 30 µM

CCN(Cc1ccc(C(=O)NO)cc1)C(=O)c1cc(C(C)C)c(O)cc1O
GI50 (NCI-H1975): 7 µM
IC50 [1]: 0.22 µM

From ChEMBL document CHEMBL5113492, “Design, synthesis, and biological evalution of bifunctional inhibitors against Hsp90-HDAC6 interplay” (Eur J Med Chem, 2022)
